Experimental data from ChEMBL document CHEMBL1821663, “Synthesis and biological evaluation of glycogen synthase kinase 3 (GSK-3) inhibitors: an fast and atom efficient access to 1-aryl-3-benzylureas” (Bioorg Med Chem Lett, 2011).

Assays:
[1] = molecular target: T1, Glycogen synthase kinase-3 beta (Homo sapiens, UniProt P49841); experiment: Inhibition of GSK3-beta assessed as [32P]gamma-ATP incorporation into substrate at 1 uM after 15 mins by gamma counting; values are per cent of control
Target sequence in this assay (P49841 whole entry, looked up): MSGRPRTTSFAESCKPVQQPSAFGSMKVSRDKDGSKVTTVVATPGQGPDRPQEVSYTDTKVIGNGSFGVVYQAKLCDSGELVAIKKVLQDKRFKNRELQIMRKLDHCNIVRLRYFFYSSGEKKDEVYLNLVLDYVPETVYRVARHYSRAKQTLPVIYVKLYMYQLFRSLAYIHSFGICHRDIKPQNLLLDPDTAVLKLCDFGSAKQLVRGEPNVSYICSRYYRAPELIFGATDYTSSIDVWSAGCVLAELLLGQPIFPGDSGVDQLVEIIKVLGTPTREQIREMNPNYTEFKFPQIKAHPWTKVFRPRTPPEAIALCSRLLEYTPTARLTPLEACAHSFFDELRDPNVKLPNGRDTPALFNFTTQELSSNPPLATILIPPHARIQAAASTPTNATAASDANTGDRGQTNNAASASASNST

[2] = molecular target: T1, Glycogen synthase kinase-3 beta; experiment: Inhibition of GSK3-beta assessed as [32P]gamma-ATP incorporation into substrate at 10 uM after 15 mins by gamma counting; values are per cent of control
Target sequence in this assay (P49841 whole entry, looked up): as above

[3] = molecular target: T2, Aurora kinase A (Homo sapiens, UniProt O14965); experiment: Inhibition of human AURKA activity using Ser/Thr 1 peptide as substrate by FRET assay
T2 sequence (O14965 whole entry): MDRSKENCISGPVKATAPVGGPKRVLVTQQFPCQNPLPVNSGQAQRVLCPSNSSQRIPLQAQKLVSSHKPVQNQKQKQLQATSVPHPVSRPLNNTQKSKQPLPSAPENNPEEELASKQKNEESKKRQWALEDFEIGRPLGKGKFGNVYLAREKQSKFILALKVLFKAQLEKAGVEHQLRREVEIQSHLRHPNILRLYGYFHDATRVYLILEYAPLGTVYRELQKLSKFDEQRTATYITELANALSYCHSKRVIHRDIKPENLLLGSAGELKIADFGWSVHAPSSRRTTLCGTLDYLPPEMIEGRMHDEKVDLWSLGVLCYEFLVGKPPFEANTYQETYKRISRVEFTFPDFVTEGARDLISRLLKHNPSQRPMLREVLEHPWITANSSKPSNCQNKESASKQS

[4] = molecular target: Cyclin-dependent kinase 5/CDK5 activator 1 (Homo sapiens, UniProt Q00535); experiment: Inhibition of human CDK5/p35 activity using Ser/Thr 12 peptide as substrate by FRET assay; assay type: protein-complex assay
[5] = molecular target: Glycogen synthase kinase-3 alpha (Homo sapiens, UniProt P49840); experiment: Inhibition of human GSK3alpha activity using Ser/Thr 11 peptide as substrate by FRET assay
[6] = molecular target: Protein kinase C alpha type (Homo sapiens, UniProt P17252); experiment: Inhibition of human PKCalpha activity using Ser/Thr 7 peptide as substrate by FRET assay
[7] = molecular target: T1, Glycogen synthase kinase-3 beta; experiment: Inhibition of human GSK3-beta activity using Ser/Thr 9 peptide as substrate by FRET assay
Target sequence in this assay (P49841 whole entry): as the sequence (P49841 whole entry, looked up) above

[8] = molecular target: Casein kinase I isoform epsilon (Homo sapiens, UniProt P49674); experiment: Inhibition of human CKI epsilon activity using Ser/Thr 11 peptide as substrate by FRET assay
[9] = species on record: Danio rerio; experiment: Toxicity in 8 to 15 -somite stage zebrafish embryo after 18 to 25 hrs; assay type: organism-based; conditions: in vivo
[10] = species on record: Danio rerio; experiment: Toxicity in 8 to 15 -somite stage zebrafish embryo assessed as deformation in fish tail formation at 100 uM after 18 to 25 hrs; assay type: organism-based; conditions: in vivo
[11] = species on record: Danio rerio; experiment: Toxicity in 8 to 15 -somite stage zebrafish embryo assessed as swimming movements in circles at 100 uM after 18 to 25 hrs; assay type: organism-based; conditions: in vivo
[12] = species on record: Danio rerio; experiment: Toxicity in 8 to 15 -somite stage zebrafish embryo assessed as swimming movements in circles at 25 uM after 18 to 25 hrs; assay type: organism-based; conditions: in vivo
[13] = species on record: Danio rerio; experiment: Toxicity in 8 to 15 -somite stage zebrafish embryo assessed as deformation in fish tail formation at 25 uM after 18 to 25 hrs; assay type: organism-based; conditions: in vivo

Glycogen synthase kinase-3 alpha, sequence (P49840 whole entry): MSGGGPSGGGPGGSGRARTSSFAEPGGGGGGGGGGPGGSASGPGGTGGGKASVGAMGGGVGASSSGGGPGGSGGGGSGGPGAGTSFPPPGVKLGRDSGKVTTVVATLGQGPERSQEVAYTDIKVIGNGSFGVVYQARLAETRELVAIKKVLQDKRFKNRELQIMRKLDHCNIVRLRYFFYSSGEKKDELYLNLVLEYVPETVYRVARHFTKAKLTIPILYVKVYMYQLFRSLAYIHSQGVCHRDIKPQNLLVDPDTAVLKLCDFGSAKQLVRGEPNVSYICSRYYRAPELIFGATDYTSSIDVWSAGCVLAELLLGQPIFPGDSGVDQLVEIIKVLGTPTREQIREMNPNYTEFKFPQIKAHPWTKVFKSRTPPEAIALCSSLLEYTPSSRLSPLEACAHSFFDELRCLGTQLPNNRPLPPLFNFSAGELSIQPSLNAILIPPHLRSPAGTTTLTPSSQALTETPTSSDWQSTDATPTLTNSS
Casein kinase I isoform epsilon, sequence (P49674 whole entry, canonical isoform): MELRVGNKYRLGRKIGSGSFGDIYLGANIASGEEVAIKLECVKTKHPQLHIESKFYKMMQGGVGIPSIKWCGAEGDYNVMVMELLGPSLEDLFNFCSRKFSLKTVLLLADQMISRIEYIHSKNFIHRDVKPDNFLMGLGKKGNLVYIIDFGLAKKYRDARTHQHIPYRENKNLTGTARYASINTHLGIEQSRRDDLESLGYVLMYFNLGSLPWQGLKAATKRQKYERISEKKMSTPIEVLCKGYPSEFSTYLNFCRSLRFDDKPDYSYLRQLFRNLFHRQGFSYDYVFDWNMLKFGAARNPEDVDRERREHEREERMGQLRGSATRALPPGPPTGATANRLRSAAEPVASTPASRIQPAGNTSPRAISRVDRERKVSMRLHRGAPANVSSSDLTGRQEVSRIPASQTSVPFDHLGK
Cyclin-dependent kinase 5/CDK5 activator 1, sequence (Q00535 whole entry): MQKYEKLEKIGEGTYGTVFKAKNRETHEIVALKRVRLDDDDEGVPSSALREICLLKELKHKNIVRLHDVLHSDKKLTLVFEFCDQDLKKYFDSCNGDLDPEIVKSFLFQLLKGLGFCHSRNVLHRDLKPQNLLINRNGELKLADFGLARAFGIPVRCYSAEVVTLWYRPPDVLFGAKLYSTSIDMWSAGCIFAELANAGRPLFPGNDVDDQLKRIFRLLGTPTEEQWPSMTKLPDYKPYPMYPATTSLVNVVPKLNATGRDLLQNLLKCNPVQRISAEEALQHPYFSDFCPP
Cyclin-dependent kinase 5/CDK5 activator 1, sequence (Q15078 whole entry, further chain): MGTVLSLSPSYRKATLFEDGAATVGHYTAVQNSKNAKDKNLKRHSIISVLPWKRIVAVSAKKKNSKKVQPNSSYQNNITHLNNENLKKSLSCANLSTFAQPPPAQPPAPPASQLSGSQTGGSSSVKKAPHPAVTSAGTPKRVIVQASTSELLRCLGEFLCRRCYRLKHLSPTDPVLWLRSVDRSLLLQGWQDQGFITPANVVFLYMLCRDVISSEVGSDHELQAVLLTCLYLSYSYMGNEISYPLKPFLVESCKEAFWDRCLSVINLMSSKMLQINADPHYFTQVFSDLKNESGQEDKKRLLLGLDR

SMILES	residual activity [1]	residual activity [2]	IC50 [3]	IC50 [4]	IC50 [5]	IC50 [6]	IC50 [7]	IC50 [8]	Activity [9]	Activity [10]	Activity [11]	Activity [12]	Activity [13]
COc1ccc(CNC(=O)Nc2cc(-c3ccccc3OC)ccn2)cc1	91%	32%	–	–	–	–	–	–	–	–	–	–	–
COc1ccc(CNC(=O)Nc2ncc([N+](=O)[O-])s2)cc1	55%	20%	–	–	–	> 100 µM	–	> 100 µM	Toxic	–	–	–	–
CCOC(=O)c1sc(NC(=O)NCc2ccc(F)cc2)nc1C	–	–	–	–	–	–	–	–	Non-toxic	–	–	–	–
COc1ccc(CNC(=O)Nc2cc(C#N)ccn2)cc1	101%	42%	> 100 µM	> 100 µM	1.12 µM	> 100 µM	1.43 µM	> 100 µM	–	–	–	–	–
COc1ccc(CNC(=O)Nc2cc(-c3cccnc3F)ccn2)cc1	–	12%	–	–	–	–	0.098 µM	–	–	–	–	–	–
COc1ccc(CNC(=O)Nc2ccc(C#N)cn2)cc1	79%	40%	–	–	–	–	–	–	–	–	–	–	–
COc1ccc(CNC(=O)Nc2cc(-c3nnn[nH]3)ccn2)cc1	82%	24%	> 100 µM	> 100 µM	0.37 µM	> 100 µM	0.51 µM	> 100 µM	Non-toxic	Toxic	Toxic	–	–
Nc1nc(NCCNc2ncc(-c3ncc[nH]3)c(-c3ccc(Cl)cc3Cl)n2)ccc1[N+](=O)[O-]	–	–	–	–	–	–	–	–	Non-toxic	–	–	Toxic	Toxic

More lines, main results first:

residual activity [1]	residual activity [2]	IC50 [3]	IC50 [4]	IC50 [5]	IC50 [6]	IC50 [7]	IC50 [8]	SMILES	Activity [9]	Activity [10]	Activity [11]	Activity [12]	Activity [13]
–	–	> 100 µM	> 100 µM	0.22 µM	> 100 µM	3.64 µM	> 100 µM	COc1ccc(CNC(=O)Nc2nc3ccc([N+](=O)[O-])cc3s2)cc1	–	–	–	–	–
57%	24%	–	–	–	–	–	–	COc1ccc(CNC(=O)Nc2nc3ccc(C#N)cc3s2)cc1	–	–	–	–	–
75%	31%	–	–	–	–	–	–	COc1ccc(CNC(=O)Nc2ccc([N+](=O)[O-])cn2)cc1	–	–	–	–	–
69%	18%	4.8 µM	26.4 µM	0.13 µM	24.2 µM	0.14 µM	15.3 µM	COc1ccc(CNC(=O)Nc2nc3ccc(-c4nnn[nH]4)cc3s2)cc1	Non-toxic	Toxic	Toxic	–	–
